Results reported in publication PMC9329448 (Journal of Experimental Pharmacology, 2022).

Target: human dihydroorotate dehydrogenase (HsDHODH) (Homo sapiens, UniProt Q02127)
Assay type: biochemical

human dihydroorotate dehydrogenase (HsDHODH), sequence (Q02127 whole entry): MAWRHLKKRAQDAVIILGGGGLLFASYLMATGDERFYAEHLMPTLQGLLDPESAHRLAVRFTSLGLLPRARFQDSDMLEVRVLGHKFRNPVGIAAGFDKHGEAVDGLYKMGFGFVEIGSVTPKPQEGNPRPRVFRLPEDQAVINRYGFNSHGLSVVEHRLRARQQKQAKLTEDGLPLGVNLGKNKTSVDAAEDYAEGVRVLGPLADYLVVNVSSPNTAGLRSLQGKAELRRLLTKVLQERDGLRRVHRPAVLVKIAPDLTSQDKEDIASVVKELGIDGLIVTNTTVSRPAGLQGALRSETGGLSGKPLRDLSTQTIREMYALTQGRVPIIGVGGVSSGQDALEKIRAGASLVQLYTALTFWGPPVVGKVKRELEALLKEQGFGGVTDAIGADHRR

Compound `O=C(/C=C/c1ccc(O)c(O)c1)OCCc1ccccc1` [CAPE, caffeic acid phenethyl ester] has an IC50 of 121 ± 6.78 µM.
